We go through one compound from patent US9505728B2, “Triazolone compounds and uses thereof” (INCEPTION 2, INC., priority 2012, dated 2016).

pIC50: −log10 of the molar value.

What all share (format): cell-based
Common to all, as to settings: receptor agonist at ~EC80

The target in test [1] is T1, PPAR gamma (Homo sapiens, UniProt P37231).
T1 construct: host or cells: engineered reporter cells of the kit
T1 sequence (P37231 1-505): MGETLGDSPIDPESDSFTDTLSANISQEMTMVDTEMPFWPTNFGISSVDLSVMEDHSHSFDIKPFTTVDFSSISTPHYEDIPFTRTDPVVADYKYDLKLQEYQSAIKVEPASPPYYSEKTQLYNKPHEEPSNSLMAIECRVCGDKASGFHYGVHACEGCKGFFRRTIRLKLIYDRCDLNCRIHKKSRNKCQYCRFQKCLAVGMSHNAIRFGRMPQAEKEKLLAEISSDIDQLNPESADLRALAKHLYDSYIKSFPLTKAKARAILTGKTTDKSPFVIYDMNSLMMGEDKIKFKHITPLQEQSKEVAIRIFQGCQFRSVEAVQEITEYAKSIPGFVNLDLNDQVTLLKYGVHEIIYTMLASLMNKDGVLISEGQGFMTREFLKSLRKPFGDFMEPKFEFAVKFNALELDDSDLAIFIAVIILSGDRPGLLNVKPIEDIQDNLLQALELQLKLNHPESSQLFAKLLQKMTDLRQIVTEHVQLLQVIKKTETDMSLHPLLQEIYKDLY
Nature of the test: Target selectivity counterscreen, PPAR γ reporter assay. As for the experimental part:
(§1) Target Selectivity Assays
(§2) To determine species selectivity, a Mouse PPARα Reporter Assay System was used (Indigo Biosciences, Cat. #M00111). Activity of test compounds to antagonize or agonize other isoforms of human PPAR, for example β/δ and γ, were assessed using the corresponding kits from Indigo Biosciences (Cat. #IB00121 and #IB00101, respectively). In addition to PPAR activity, compounds were also screened for activity against other nuclear hormone receptors including Estrogen Receptor β, Glucocorticoid Receptor and Thyroid Receptor β using commercially available kits (Indigo Biosciences, Cat. #IB00411, IB00201 and IB01101, respectively). Each assay system from Indigo Biosciences uses technology analogous to the human PPARα kit, with the variance being that the cells used for each assay were engineered to over-express the receptor of interest. In addition, the appropriate receptor agonist (included with each kit) was used at ˜EC80 for assays in which antagonist potency was being assessed.

The target of test [2] is T2, Glucocorticoid Receptor (Homo sapiens, UniProt P04150).
T2 construct: host or cells: engineered reporter cells of the kit
T2 sequence (P04150 1-777): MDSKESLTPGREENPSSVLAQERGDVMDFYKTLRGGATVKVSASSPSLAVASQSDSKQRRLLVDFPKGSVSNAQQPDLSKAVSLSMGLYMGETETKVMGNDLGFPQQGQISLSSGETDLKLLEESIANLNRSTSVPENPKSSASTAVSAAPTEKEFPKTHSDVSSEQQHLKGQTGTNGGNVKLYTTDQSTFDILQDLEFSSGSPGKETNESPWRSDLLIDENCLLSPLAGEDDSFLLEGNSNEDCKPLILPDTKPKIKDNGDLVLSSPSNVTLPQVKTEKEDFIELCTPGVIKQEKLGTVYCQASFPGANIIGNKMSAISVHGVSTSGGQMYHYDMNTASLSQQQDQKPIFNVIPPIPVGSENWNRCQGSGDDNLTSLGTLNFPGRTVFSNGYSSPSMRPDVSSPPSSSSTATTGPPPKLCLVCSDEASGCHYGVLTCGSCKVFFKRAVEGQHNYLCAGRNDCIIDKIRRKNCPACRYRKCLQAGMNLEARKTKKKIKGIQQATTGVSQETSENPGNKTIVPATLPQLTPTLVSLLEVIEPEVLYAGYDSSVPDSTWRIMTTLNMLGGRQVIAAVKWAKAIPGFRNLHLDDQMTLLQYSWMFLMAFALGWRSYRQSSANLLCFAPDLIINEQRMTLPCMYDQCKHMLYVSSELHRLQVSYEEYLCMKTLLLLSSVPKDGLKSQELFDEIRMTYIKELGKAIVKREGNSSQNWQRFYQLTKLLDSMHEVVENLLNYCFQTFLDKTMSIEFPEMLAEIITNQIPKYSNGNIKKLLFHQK
Nature of the test: Target selectivity counterscreen, Glucocorticoid Receptor reporter assay. As for the experimental part: as §1, §2

For test [3], the target named is T3, PPAR beta/delta (Homo sapiens, UniProt Q03181).
T3 construct: host or cells: engineered reporter cells of the kit
T3 sequence (Q03181 1-441): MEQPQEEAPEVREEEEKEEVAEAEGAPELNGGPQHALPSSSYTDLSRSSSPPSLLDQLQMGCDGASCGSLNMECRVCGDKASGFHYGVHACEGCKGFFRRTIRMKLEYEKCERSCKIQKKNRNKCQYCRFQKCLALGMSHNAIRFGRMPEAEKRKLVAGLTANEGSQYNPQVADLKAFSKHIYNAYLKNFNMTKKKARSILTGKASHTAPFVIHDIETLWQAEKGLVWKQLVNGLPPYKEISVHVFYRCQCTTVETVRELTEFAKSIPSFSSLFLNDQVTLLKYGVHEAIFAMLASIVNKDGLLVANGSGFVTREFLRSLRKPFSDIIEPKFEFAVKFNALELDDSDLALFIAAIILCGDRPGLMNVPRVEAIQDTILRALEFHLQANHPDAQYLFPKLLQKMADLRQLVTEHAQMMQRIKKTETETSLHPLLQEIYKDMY
Briefly: Target selectivity counterscreen, PPAR β/δ reporter assay. How it is done: as §1, §2

The target in test [4] is T4, Estrogen Receptor β (Homo sapiens, UniProt Q92731).
T4 construct: host or cells: engineered reporter cells of the kit
T4 sequence (Q92731 whole entry): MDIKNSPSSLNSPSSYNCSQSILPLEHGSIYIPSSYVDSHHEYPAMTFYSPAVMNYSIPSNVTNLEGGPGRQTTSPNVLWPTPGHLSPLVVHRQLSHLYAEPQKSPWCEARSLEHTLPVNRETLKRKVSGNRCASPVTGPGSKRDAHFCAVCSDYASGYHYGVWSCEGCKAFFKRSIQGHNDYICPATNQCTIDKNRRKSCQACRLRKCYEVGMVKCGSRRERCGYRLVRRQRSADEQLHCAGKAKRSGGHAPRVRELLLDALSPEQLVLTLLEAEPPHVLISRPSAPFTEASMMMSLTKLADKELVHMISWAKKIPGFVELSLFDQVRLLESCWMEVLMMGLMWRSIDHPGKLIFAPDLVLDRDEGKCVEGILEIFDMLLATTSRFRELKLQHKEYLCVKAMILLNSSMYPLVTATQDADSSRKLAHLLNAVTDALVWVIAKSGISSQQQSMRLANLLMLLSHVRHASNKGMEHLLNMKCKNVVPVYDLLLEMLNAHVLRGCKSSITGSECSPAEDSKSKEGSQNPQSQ
Nature of the test: Target selectivity counterscreen, Estrogen Receptor β reporter assay. As for the experimental part:
as §1, §2

Turning to `CCn1c(CCCc2ccc(-c3ccc(NS(=O)(=O)c4ccccc4)cn3)cc2)nn(Cc2ccc(C(C)(C)C)cc2)c1=O` [Example 10, N-(6-(4-(3-(1-(4-(tert-Butyl)benzyl)-4-ethyl-5-oxo-4,5-dihydro-1H-1,2,4-triazol-3-yl)propyl)phenyl)pyridin-3-yl)benzenesulfonamide], the pIC50 in test [1] is 5.54; in test [2], 4.44; in test [3], 5.59; in test [4], 4.94.
